Common to all, as to format: biochemical
What all share (settings): ATP 100 μM

One assay concerns the target JAK3 (Homo sapiens (Human), UniProt P52333). Briefly: Enzyme assay (Assay Example^a 1), JAK3.
For another assay, the target named is Tyk2 (Homo sapiens (Human), UniProt P29597). Briefly: Enzyme assay (Assay Example^a 1), Tyk2.
In another assay the target is JAK2 (Homo sapiens (Human), UniProt O60674). Briefly: Enzyme assay (Assay Example^a 1), JAK2.
Another assay has as its target JAK1 (Homo sapiens (Human), UniProt P23458). Briefly: Enzyme assay (Assay Example^a 1), JAK1.

Each structure is given as a SMILES string. A value given as a limit tells only on which side of the number the result lay.

Sequence of Tyk2 (P29597 whole entry): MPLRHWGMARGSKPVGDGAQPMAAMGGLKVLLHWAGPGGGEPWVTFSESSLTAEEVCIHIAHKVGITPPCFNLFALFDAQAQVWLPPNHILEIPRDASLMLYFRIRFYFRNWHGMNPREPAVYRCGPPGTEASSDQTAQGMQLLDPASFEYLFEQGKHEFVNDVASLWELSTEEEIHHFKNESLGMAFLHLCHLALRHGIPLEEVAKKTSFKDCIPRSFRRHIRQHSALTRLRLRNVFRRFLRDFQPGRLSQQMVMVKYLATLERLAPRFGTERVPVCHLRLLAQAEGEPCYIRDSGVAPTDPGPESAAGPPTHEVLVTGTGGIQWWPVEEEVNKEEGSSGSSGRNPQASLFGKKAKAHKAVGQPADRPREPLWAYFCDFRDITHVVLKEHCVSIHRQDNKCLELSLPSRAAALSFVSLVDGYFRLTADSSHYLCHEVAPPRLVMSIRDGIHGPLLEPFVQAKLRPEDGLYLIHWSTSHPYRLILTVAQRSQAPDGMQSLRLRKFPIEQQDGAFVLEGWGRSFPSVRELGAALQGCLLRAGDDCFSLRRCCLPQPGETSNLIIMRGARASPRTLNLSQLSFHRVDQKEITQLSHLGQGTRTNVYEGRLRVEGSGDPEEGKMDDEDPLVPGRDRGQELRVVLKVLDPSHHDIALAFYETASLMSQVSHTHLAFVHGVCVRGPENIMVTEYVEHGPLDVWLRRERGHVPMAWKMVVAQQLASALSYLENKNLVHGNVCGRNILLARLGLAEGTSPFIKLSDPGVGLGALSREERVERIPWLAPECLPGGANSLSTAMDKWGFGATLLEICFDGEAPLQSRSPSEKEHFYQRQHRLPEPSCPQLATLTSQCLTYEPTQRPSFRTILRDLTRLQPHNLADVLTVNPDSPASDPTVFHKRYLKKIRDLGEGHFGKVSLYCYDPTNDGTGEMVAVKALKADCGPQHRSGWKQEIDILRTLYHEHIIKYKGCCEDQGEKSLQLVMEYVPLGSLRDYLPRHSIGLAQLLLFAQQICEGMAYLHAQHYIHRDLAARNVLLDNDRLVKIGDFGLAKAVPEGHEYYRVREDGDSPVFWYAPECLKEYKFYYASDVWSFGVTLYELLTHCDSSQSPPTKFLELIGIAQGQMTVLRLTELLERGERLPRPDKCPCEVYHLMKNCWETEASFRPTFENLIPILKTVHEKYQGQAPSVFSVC
Sequence of JAK3 (P52333 whole entry): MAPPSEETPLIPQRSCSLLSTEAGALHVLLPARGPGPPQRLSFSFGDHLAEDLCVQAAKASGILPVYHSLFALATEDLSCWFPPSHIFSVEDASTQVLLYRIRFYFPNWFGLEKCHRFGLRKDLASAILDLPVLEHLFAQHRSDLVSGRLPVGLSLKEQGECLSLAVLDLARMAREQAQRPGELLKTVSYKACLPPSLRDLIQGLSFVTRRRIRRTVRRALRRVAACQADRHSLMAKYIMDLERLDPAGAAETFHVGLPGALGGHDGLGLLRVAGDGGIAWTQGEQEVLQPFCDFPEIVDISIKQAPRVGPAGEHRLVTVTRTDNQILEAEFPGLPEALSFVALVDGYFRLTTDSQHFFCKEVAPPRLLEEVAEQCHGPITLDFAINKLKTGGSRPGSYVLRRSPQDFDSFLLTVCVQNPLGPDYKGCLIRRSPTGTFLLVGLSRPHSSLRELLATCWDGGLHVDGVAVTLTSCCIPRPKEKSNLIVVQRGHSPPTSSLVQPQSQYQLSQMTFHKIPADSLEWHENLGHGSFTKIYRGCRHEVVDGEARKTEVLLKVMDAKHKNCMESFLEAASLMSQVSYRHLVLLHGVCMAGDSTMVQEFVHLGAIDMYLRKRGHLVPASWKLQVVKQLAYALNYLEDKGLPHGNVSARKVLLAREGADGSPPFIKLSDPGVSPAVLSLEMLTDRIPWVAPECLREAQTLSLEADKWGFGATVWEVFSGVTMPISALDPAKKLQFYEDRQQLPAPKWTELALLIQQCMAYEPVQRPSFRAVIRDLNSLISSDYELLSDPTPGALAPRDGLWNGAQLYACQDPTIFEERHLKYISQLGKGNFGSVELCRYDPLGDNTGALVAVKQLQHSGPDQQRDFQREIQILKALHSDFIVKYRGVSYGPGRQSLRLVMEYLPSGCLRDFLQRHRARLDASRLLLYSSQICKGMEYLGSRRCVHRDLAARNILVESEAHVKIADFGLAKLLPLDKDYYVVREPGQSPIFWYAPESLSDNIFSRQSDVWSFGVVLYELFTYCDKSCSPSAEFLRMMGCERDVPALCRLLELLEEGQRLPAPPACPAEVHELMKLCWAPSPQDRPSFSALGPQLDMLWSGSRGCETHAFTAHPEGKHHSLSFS

As for `O[C@H]1Cc2ccccc2[C@H]1NC1CCC(c2nnn3cnc4[nH]ccc4c23)CC1` (mixture of isomers) [compound 378, (1R,2S)-1-{[4-(7H-pyrrolo[3,2-e][1,2,3]triazolo[1,5-c]pyrimidin-1-yl)cyclohexyl]amino}-2,3-dihydro-1H-inden-2-ol], the IC50 turned out to be 0.41 µM against JAK3, 0.2 µM at Tyk2, 0.071 µM at JAK2 and 0.004 µM against JAK1.

On to `O[C@@H]1Cc2ccccc2[C@@H]1NC1CCC(c2nnn3cnc4[nH]ccc4c23)CC1` (mixture of isomers) [compound 379, (1S,2R)-1-{[4-(7H-pyrrolo[3,2-e][1,2,3]triazolo[1,5-c]pyrimidin-1-yl)cyclohexyl]amino}-2,3-dihydro-1H-inden-2-ol], for which the IC50 against JAK3 amounted to 0.66 µM; at Tyk2, 0.29 µM; on JAK2, 0.11 µM; at JAK1 it was 0.013 µM.

With `O=C(CC(F)(F)F)N1CCCC(c2nnn3cnc4[nH]ccc4c23)C1` (racemic) [compound 17], the IC50 against JAK3 (Table^a 154) is 2.1 µM; against Tyk2 (Table^a 154), 0.57 µM; against JAK2 (Table^a 154), 0.076 µM; against JAK1 (Table^a 154) it was 0.029 µM.

Regarding `Cc1cc(NC(=O)N2CCCC(c3nnn4cnc5[nH]ccc5c34)C2)sn1` (racemic) [compound 21], the IC50 was found to be 0.9 µM at JAK3 (Table^a 154), 0.71 µM on Tyk2 (Table^a 154), 0.11 µM against JAK2 (Table^a 154) and 0.015 µM against JAK1 (Table^a 154).

`CC(NC[C@H]1CC[C@H](c2nnn3cnc4[nH]ccc4c23)CC1)c1ccc(F)c(F)c1` (mixture of isomers) [compound 109]: the IC50 against JAK3 (Table^a 154) came to 0.16 µM; against Tyk2 (Table^a 154), 0.072 µM; against JAK2 (Table^a 154), 0.011 µM; against JAK1 (Table^a 154), 0.0016 µM.

With `OC(CNC[C@H]1CC[C@H](c2nnn3cnc4[nH]ccc4c23)CC1)(c1ccccc1)C(F)(F)F` (mixture of isomers) [compound 172, 3-({[trans-4-(7H-pyrrolo[3,2-e][1,2,3]triazolo[1,5-c]pyrimidin-1-yl)cyclohexyl]methyl}amino)-1,1,1-trifluoro-2-phenylpropan-2-ol], the IC50 was determined as 0.63 µM at Tyk2 (Table^a 154), 0.093 µM against JAK2 (Table^a 154) and 0.013 µM at JAK1 (Table^a 154).

As for `Fc1ccc([C@@H]2C[C@H]2CN[C@H]2CC[C@H](c3nnn4cnc5[nH]ccc5c34)CC2)cc1` (relative stereo) [389b, trans-N-{[trans-2-(4-fluorophenyl)cyclopropyl]methyl}-4-(7H-pyrrolo[3,2-e][1,2,3]triazolo[1,5-c]pyrimidin-1-yl)cyclohexanamine], the IC50 at JAK3 is greater than 1 µM; against Tyk2, 0.67 µM; against JAK2, 0.14 µM; at JAK1, 0.0079 µM.

For `O[C@H]1CCCC[C@H]1CNC[C@H]1CC[C@H](c2nnn3cnc4[nH]ccc4c23)CC1` (relative stereo) [compound 312, cis-2-[({[trans-4-(7H-pyrrolo[3,2-e][1,2,3]triazolo[1,5-c]pyrimidin-1-yl)cyclohexyl]methyl}amino)methyl]cyclohexanol], the IC50 on JAK3 was greater than 1 µM; against Tyk2 it was 0.37 µM; on JAK2, 0.045 µM; against JAK1, 0.012 µM.

Consider `FC(F)(F)C1CCC(N2CCC(c3nnn4cnc5[nH]ccc5c34)CC2)CC1` (single isomer, unassigned) [56a], for which the IC50 against JAK3 (Table^a 154) was greater than 1 µM; against Tyk2 (Table^a 154), greater than 1 µM; against JAK2 (Table^a 154) it was greater than 1 µM; at JAK1 (Table^a 154) it was 0.5 µM.

For the compound `FC(F)(F)C1CCC(N2CCC(c3nnn4cnc5[nH]ccc5c34)CC2)CC1` (single isomer, unassigned) [56b], the IC50 against JAK3 (Table^a 154) was greater than 1 µM; at Tyk2 (Table^a 154), greater than 1 µM; on JAK2 (Table^a 154), 0.6 µM; against JAK1 (Table^a 154), 0.035 µM.

With `c1ccc(CCCN[C@H]2CC[C@@H](c3nnn4cnc5[nH]ccc5c34)CC2)cc1` [136a], the IC50 was greater than 1 µM on JAK3 (Table^a 154), greater than 1 µM at Tyk2 (Table^a 154), greater than 1 µM against JAK2 (Table^a 154) and 0.14 µM against JAK1 (Table^a 154).

In the case of `c1ccc(CCCN[C@H]2CC[C@H](c3nnn4cnc5[nH]ccc5c34)CC2)cc1` [136b], the IC50 at JAK3 (Table^a 154) was greater than 1 µM; on Tyk2 (Table^a 154), 0.45 µM; on JAK2 (Table^a 154), 0.29 µM; on JAK1 (Table^a 154), 0.016 µM.

On to `N#Cc1ccc(CN[C@H]2CC[C@@H](c3nnn4cnc5[nH]ccc5c34)CC2)cc1` [137a], for which the IC50 is greater than 1 µM at JAK3 (Table^a 154), 0.31 µM against Tyk2 (Table^a 154), 0.49 µM on JAK2 (Table^a 154) and 0.032 µM against JAK1 (Table^a 154).

For the compound `N#Cc1ccc(CN[C@H]2CC[C@H](c3nnn4cnc5[nH]ccc5c34)CC2)cc1` [137b], the IC50 against JAK3 (Table^a 154) was 0.38 µM; against Tyk2 (Table^a 154), 0.088 µM; against JAK2 (Table^a 154), 0.039 µM; on JAK1 (Table^a 154) it was 0.0041 µM.

As for `FC(F)(F)c1ccc(CN[C@H]2CC[C@@H](c3nnn4cnc5[nH]ccc5c34)CC2)cc1` [138a], the 50% inhibitory concentration (IC50) at JAK3 (Table^a 154) was greater than 1 µM; on Tyk2 (Table^a 154), 0.25 µM; on JAK2 (Table^a 154), 0.74 µM; against JAK1 (Table^a 154), 0.023 µM.

Regarding `FC(F)(F)c1ccc(CN[C@H]2CC[C@H](c3nnn4cnc5[nH]ccc5c34)CC2)cc1` [138b], the IC50 against JAK3 (Table^a 154) stood at 0.4 µM; on Tyk2 (Table^a 154), 0.046 µM; on JAK2 (Table^a 154), 0.043 µM; at JAK1 (Table^a 154), 0.0043 µM.

As to `c1cc2c(ncn3nnc([C@H]4CC[C@@H](NN5CCOCC5)CC4)c23)[nH]1` [139a], the IC50 was 0.43 µM against JAK3 (Table^a 154), greater than 1 µM against Tyk2 (Table^a 154), 0.4 µM against JAK2 (Table^a 154) and 0.26 µM against JAK1 (Table^a 154).

Turning to `c1cc2c(ncn3nnc([C@H]4CC[C@H](NN5CCOCC5)CC4)c23)[nH]1` [139b], the IC50 against JAK3 (Table^a 154) was greater than 1 µM; against Tyk2 (Table^a 154), 0.5 µM; on JAK2 (Table^a 154), 0.076 µM; against JAK1 (Table^a 154), 0.021 µM.

As for `c1ccc(CN[C@H]2CC[C@@H](c3nnn4cnc5[nH]ccc5c34)CC2)cc1` [194a, cis-N-benzyl-4-(7H-pyrrolo[3,2-e][1,2,3]triazolo[1,5-c]pyrimidin-1-yl)cyclohexanamine], the IC50 against JAK3 (Table^a 154) was greater than 1 µM; on Tyk2 (Table^a 154) it was 0.33 µM; on JAK2 (Table^a 154), 0.74 µM; at JAK1 (Table^a 154), 0.032 µM.

On to `c1ccc(CN[C@H]2CC[C@H](c3nnn4cnc5[nH]ccc5c34)CC2)cc1` [194b, trans-N-benzyl-4-(7H-pyrrolo[3,2-e][1,2,3]triazolo[1,5-c]pyrimidin-1-yl)cyclohexanamine], for which the IC50 at JAK3 (Table^a 154) was determined as 0.5 µM; against Tyk2 (Table^a 154), 0.11 µM; against JAK2 (Table^a 154), 0.046 µM; against JAK1 (Table^a 154), 0.0084 µM.

On to `FC1(F)CCC(c2nnn3cnc4[nH]ccc4c23)CC1` [compound 64], for which the IC50 against Tyk2 (Table^a 154) worked out at 0.31 µM; on JAK2 (Table^a 154) it was 0.12 µM; on JAK1 (Table^a 154) it was 0.033 µM.

As to `c1cc2c(ncn3nnc(C4CCCCCC4)c23)[nH]1` [compound 66], the values for the IC50 against Tyk2 (Table^a 154), at JAK2 (Table^a 154) and at JAK1 (Table^a 154) were 0.027 µM, 0.013 µM and 0.0033 µM, respectively.

`N#Cc1ccc(NC[C@H]2CC[C@H](c3nnn4cnc5[nH]ccc5c34)CC2)cc1Cl` [compound 247, 4-({[trans-4-(7H-pyrrolo[3,2-e][1,2,3]triazolo[1,5-c]pyrimidin-1-yl)cyclohexyl]methyl}amino)-2-chlorobenzonitrile]: the IC50 against Tyk2 is greater than 1 µM; on JAK2, 0.09 µM; against JAK1, 0.013 µM.

In general, IC50 refers to the point on the concentration scale where inhibition reaches its midpoint. A low value points to inhibition by little substance.

These data come from US9216999B2, “Substituted pyrrolo[2,3-h][1,6]naphthyridines and compositions thereof as JAK inhibitors” (priority 2011, dated 2015).
